The values below come from ChEMBL document CHEMBL1129539, “2,4-diamino-5-deaza-6-substituted pyrido[2,3-d]pyrimidine antifolates as potent and selective nonclassical inhibitors of dihydrofolate reductases” (J Med Chem, 1996).

In test [1] the target is T1, Dihydrofolate reductase (Rattus norvegicus, UniProt Q920D2).
T1 sequence (Q920D2 whole entry): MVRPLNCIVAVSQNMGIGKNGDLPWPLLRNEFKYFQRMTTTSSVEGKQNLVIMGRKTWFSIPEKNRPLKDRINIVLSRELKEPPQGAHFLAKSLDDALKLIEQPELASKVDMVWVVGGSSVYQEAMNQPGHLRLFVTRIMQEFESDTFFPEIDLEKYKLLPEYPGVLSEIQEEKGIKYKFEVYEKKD
Description: Inhibitory activity against rat liver dihydrofolate reductase (in 90 uM dihydrofolic acid)

Test [2] concerns the target T2, Dihydrofolate reductase (Pneumocystis carinii, UniProt P16184).
T2 sequence (P16184 whole entry): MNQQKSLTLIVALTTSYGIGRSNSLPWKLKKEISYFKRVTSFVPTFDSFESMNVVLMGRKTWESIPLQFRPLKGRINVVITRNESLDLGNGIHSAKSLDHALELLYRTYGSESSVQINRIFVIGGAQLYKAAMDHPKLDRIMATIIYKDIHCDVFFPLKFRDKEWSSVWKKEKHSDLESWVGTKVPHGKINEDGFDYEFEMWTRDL
Description: Inhibitory activity against Pneumocystis carinii dihydrofolate reductase (in 90 uM dihydrofolic acid)

Test [3] deals with T3, Bifunctional dihydrofolate reductase-thymidylate synthase (Toxoplasma gondii, UniProt Q07422).
T3 sequence (Q07422 whole entry): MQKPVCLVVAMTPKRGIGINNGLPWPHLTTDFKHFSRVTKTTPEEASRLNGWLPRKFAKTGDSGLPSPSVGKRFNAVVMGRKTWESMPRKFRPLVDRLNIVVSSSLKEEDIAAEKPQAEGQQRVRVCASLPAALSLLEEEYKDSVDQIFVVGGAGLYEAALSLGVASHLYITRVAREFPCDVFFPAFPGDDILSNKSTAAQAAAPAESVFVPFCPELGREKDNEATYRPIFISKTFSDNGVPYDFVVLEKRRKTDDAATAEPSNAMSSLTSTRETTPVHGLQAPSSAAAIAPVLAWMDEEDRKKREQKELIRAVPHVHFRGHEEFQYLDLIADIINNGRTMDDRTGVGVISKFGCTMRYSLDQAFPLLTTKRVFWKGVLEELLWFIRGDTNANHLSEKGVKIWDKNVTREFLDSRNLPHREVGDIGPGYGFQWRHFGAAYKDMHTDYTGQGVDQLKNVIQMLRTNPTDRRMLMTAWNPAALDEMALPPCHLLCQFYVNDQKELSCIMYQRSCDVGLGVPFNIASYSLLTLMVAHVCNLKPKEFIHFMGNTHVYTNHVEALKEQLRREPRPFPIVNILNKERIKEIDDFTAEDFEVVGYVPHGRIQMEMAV
Description: Inhibitory activity against Toxoplasma gondii dihydrofolate reductase (in 90 uM dihydrofolic acid)

The target of test [4] is T4, Dihydrofolate reductase (Homo sapiens, UniProt P00374).
T4 sequence (P00374 whole entry): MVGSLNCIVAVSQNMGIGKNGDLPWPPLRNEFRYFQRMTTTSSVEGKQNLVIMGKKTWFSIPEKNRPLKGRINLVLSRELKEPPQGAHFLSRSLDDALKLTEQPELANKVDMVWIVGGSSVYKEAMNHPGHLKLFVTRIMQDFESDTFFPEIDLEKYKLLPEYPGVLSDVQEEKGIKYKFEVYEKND
Kind of test: Inhibitory activity against recombinant human dihydrofolate reductase(in 50 uM dihydrofolic acid).

The target of test [5] is T3, Bifunctional dihydrofolate reductase-thymidylate synthase. This is another data set of the same source.
Description: Inhibitory activity against Toxoplasma gondii dihydrofolate reductase (in 50 uM dihydrofolic acid)
Test [6] concerns the target T5, Dihydrofolate reductase (Escherichia coli, UniProt P0ABQ4).
T5 sequence (P0ABQ4 whole entry): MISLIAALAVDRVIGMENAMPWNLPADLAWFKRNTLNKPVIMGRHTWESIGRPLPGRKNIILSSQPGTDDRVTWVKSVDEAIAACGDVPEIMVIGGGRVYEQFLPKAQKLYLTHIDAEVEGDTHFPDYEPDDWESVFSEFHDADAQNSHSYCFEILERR
Kind of test: Inhibitory activity against recombinant ec dihydrofolate reductase(in 50 uM dihydrofolic acid).

For test [7], the target named is Dihydrofolate reductase (Lactobacillus casei, UniProt P00381). Kind of test: Inhibitory activity against recombinant lc dihydrofolate reductase(in 50 uM dihydrofolic acid). Also on record: species or system Lacticaseibacillus casei.
Chain of Dihydrofolate reductase (Lactobacillus casei, UniProt P00381) (P00381 whole entry): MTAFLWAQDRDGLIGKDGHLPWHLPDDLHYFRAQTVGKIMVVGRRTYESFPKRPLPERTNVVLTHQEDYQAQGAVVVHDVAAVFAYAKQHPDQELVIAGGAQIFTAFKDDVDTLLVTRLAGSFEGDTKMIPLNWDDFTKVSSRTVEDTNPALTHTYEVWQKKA

For the molecule `Nc1nc(N)c2cc(NCCc3ccccc3)cnc2n1`, the values for the IC50 (at Dihydrofolate reductase [1]; against Dihydrofolate reductase [2]; in test [3]) were 280 nM, 1940 nM and 4450 nM, respectively.

For `CCOc1cc(Cc2cnc(N)nc2N)cc(OCC)c1-n1cccc1` [EPIROPRIM], the IC50 at Dihydrofolate reductase [1] came out at 73000 nM; in test [3], 470 nM.

Regarding `Nc1nc(N)c2cc(NCc3ccccc3)cnc2n1`, the IC50 against Dihydrofolate reductase [1] amounted to 2100 nM; in test [3] it was 520 nM; on Dihydrofolate reductase [4], 6200 nM.

As for `COc1cc(C(C)Nc2cnc3nc(N)nc(N)c3c2)cc(OC)c1OC` (stereo unspecified), the IC50 amounted to 1270 nM against Dihydrofolate reductase [1], 9200 nM against Dihydrofolate reductase [2] and 194 nM in test [3].

Turning to `COc1cc(CN(C)c2cnc3nc(N)nc(N)c3c2)cc(OC)c1OC`, the IC50 came out at 33 nM against Dihydrofolate reductase [1], 61 nM on Dihydrofolate reductase [2] and 14 nM in test [3].

As for `COc1cc(OC)c(OC)cc1CNc1cnc2nc(N)nc(N)c2c1`, the IC50 on Dihydrofolate reductase [1] came to 1100 nM; on Dihydrofolate reductase [2] it was 5500 nM; in test [3], 480 nM.

For the molecule `COc1ccc2c(CNc3cnc4nc(N)nc(N)c4c3)cccc2c1`, the values for the IC50 (against Dihydrofolate reductase [1]; at Dihydrofolate reductase [2]; in test [3]) were 370 nM, 15400 nM and 710 nM, respectively.

For the molecule `COc1ccc(OC)c(CNc2cnc3nc(N)nc(N)c3c2)c1`, the IC50 in test [5] was determined as 500 nM; in test [3], 310 nM.

`COc1ccc(CNc2cnc3nc(N)nc(N)c3c2)c2ccccc12`: the IC50 on Dihydrofolate reductase [1] came to 430 nM; against Dihydrofolate reductase [2] it was 8200 nM; in test [3], 380 nM.

Turning to `COc1cc(OC)c(CNc2cnc3nc(N)nc(N)c3c2)c(OC)c1`, the IC50 worked out at 1200 nM against Dihydrofolate reductase [1] and 230 nM in test [3].

With `Nc1nc(N)c2cc(NCc3cccc4ccccc34)cnc2n1`, the IC50 stood at 240 nM on Dihydrofolate reductase [1], 3900 nM against Dihydrofolate reductase [2] and 980 nM in test [3].

For the molecule `COc1ccc(CNc2cnc3nc(N)nc(N)c3c2)c(OC)c1OC`, the IC50 against Dihydrofolate reductase [1] was determined as 3240 nM; on Dihydrofolate reductase [2], 15300 nM; in test [3], 670 nM.

As for `COc1cc(CNc2cnc3nc(N)nc(N)c3c2)cc(OC)c1OC`, the IC50 in test [5] came to 1300 nM; in test [3] it was 350 nM.

For `COc1cc(CNc2cnc3nc(N)nc(N)c3c2)cc(OC)c1`, the IC50 in test [3] came out at 1200 nM.

In the case of `COc1cc(CN(C)c2cnc3nc(N)nc(N)c3c2)cc(OC)c1`, the IC50 against Dihydrofolate reductase [1] came out at 72 nM; in test [5], 29 nM; in test [3], 31 nM; on Dihydrofolate reductase [4], 2900 nM.

For `CN(Cc1ccccc1)c1cnc2nc(N)nc(N)c2c1`, the IC50 against Dihydrofolate reductase [1] turned out to be 140 nM; in test [5], 35 nM; against Dihydrofolate reductase [2], 68 nM; in test [3], 32 nM; on Dihydrofolate reductase [4] it was 700 nM.

Consider `Nc1nc(N)c2cc(NCc3ccc(Oc4ccccc4)cc3)cnc2n1`, for which the IC50 was determined as 2900 nM at Dihydrofolate reductase [1], 24300 nM against Dihydrofolate reductase [2] and 3700 nM in test [3].

With `CN(CCc1ccccc1)c1cnc2nc(N)nc(N)c2c1`, the IC50 was 1400 nM at Dihydrofolate reductase [1], 1800 nM at Dihydrofolate reductase [2] and 920 nM in test [3].

For the molecule `COc1ccc(CN(C)c2cnc3nc(N)nc(N)c3c2)c(OC)c1OC`, the 50% inhibitory concentration (IC50) against Dihydrofolate reductase [1] was determined as 30 nM; in test [5] it was 26 nM; at Dihydrofolate reductase [2] it was 79 nM; in test [3], 26 nM; at Dihydrofolate reductase [4], 530 nM.

Regarding `CN(Cc1ccc(C(=O)NC(=O)[C@H](N)CCC(=O)O)cc1)c1cnc2nc(N)nc(N)c2c1`, the IC50 on Dihydrofolate reductase [6] amounted to 13 nM; on Dihydrofolate reductase [4], 650 nM; on Dihydrofolate reductase [7], 170 nM.

As for `COc1ccc(CNc2cnc3nc(N)nc(N)c3c2)cc1OC`, the values for the IC50 (against Dihydrofolate reductase [1]; at Dihydrofolate reductase [2]; in test [3]) were 1500 nM, 4800 nM and 730 nM, respectively.

Turning to `COc1ccc(OC)c(CN(C)c2cnc3nc(N)nc(N)c3c2)c1`, the IC50 against Dihydrofolate reductase [1] is 57 nM; at Dihydrofolate reductase [6] it was 140 nM; on Dihydrofolate reductase [4], 8500 nM; at Dihydrofolate reductase [7], 5700 nM.
